For this experiment, the target named is ATR kinase (full-length ATR) (Homo sapiens (Human), UniProt Q13535). Kind of experiment: ATR inhibition assay (radioactive-phosphate incorporation). The format is biochemical. The method, then:
Compounds were screened for their ability to inhibit ATR kinase using a radioactive-phosphate incorporation assay. Assays were carried out in a mixture of 50 mM Tris/HCl (pH 7.5), 10 mM MgCl2 and 1 mM DTT. Final substrate concentrations were 10 μM [γ-33P]ATP (3mCi 33P ATP/mmol ATP, Perkin Elmer) and 800 μM target peptide ([…]) (SEQ ID NO:1).
Assays were carried out at 25° C. in the presence of 5 nM full-length ATR. An assay stock buffer solution was prepared containing all of the reagents listed above, with the exception of ATP and the test compound of interest. 13.5 μL of the stock solution was placed in a 96 well plate followed by addition of 2 μL of DMSO stock containing serial dilutions of the test compound (typically starting from a final concentration of 15 μM with 3-fold serial dilutions) in duplicate (final DMSO concentration 7%). The plate was pre-incubated for 10 minutes at 25° C. and the reaction initiated by addition of 15 μL [γ-33P]ATP (final concentration 10 μM).
The reaction was stopped after […] by the addition of 30 μL 0.1M phosphoric acid containing 2 mM ATP. A multiscreen phosphocellulose filter 96-well plate (Millipore, Cat no. MAPHN0B50) was pretreated with 100 μL 0.2M phosphoric acid prior to the addition of […] of the stopped assay mixture. The plate was washed with 5×200 μL 0.2M phosphoric acid. After drying, 100 μL Optiphase ‘SuperMix’ liquid scintillation cocktail (Perkin Elmer) was added to the well prior to scintillation counting (1450 Microbeta Liquid Scintillation Counter, Wallac).
After removing mean background values for all of the data points, Ki(app) data were calculated from non-linear regression analysis of the initial rate data using the Prism software package (GraphPad Prism version 3.0cx for Macintosh, GraphPad Software, San Diego Calif., USA).

Where [1] appears, read: Ki(app), 5 nM full-length ATR, 10 μM ATP, 25° C.

The structures appear in SMILES notation. Read-outs that look alike come from different tables or passages of the source.

Chain of ATR kinase (full-length ATR) (Q13535 whole entry): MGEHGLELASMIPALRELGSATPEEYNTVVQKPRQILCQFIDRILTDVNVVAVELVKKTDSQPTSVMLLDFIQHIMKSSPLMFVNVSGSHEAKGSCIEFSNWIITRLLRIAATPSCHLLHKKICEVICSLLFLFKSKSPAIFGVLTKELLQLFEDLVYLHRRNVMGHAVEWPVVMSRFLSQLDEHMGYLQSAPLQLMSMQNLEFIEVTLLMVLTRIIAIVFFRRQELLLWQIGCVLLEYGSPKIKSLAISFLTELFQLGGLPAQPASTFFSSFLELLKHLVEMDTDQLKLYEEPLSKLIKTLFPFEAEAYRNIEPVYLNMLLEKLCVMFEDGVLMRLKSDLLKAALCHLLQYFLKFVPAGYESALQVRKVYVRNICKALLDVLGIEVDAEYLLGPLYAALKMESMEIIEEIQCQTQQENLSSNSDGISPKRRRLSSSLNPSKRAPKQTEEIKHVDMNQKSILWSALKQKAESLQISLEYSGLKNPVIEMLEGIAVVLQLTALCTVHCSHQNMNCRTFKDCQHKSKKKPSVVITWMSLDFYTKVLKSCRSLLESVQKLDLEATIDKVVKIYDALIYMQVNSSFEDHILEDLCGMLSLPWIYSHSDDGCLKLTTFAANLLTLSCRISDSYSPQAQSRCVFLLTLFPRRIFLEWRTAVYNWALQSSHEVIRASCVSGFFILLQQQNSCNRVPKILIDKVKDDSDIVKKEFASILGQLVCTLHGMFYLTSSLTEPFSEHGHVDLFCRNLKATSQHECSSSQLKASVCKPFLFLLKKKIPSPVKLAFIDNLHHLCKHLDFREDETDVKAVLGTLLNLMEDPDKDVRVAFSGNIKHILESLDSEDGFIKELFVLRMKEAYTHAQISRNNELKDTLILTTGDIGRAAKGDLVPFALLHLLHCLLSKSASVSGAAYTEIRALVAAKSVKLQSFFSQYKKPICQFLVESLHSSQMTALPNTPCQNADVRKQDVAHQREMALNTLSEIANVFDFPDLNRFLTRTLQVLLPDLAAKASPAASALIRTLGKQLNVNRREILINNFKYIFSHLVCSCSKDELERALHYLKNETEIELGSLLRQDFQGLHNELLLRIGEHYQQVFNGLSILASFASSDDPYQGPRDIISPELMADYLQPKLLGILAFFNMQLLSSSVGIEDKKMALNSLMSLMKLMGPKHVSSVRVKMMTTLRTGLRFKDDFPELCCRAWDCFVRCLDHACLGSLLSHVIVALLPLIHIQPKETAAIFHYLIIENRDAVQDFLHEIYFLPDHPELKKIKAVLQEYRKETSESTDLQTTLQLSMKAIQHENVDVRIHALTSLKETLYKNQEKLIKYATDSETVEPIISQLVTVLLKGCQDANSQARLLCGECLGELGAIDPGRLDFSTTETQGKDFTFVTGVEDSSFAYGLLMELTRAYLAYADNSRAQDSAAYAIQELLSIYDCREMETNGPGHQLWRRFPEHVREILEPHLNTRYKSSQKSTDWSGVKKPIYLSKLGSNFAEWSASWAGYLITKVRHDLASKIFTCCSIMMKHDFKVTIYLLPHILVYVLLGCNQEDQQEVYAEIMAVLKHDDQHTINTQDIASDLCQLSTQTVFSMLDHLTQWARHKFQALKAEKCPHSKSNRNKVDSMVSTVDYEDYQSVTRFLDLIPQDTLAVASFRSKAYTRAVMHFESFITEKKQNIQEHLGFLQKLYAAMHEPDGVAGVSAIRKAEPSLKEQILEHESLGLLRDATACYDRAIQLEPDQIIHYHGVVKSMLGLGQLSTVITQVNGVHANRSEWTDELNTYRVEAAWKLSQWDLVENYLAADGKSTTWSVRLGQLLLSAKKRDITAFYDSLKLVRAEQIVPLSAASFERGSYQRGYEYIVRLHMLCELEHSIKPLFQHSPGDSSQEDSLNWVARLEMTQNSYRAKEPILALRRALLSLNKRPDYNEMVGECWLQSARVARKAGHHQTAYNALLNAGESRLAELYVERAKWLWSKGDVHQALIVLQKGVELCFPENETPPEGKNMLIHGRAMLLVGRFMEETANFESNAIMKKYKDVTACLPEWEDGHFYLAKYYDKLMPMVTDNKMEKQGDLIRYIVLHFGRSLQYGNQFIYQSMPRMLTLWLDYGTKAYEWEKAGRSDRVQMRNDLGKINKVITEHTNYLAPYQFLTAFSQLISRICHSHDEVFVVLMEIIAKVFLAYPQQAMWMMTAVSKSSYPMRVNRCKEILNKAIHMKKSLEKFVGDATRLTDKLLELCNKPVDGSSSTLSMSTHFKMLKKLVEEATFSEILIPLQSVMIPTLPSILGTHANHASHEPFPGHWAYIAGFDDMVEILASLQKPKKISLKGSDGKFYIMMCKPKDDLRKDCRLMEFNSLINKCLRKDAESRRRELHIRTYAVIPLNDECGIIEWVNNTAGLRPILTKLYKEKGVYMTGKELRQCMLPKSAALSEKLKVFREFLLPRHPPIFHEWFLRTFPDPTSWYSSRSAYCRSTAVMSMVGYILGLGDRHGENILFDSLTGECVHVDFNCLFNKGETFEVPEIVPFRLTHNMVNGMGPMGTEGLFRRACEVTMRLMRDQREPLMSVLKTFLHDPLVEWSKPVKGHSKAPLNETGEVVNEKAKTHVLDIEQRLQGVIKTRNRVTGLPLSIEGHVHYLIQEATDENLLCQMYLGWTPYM

Take `Nc1nn2cc(F)cnc2c1C(=O)Nc1cnccc1CN1CCCC1=O` [I-C-76, 2-amino-6-fluoro-N-(4-((2-oxopyrrolidin-1-yl)methyl)pyridin-3-yl)pyrazolo[1,5-a]pyrimidine-3-carboxamide]: the Ki fell in the range of 1000 to 5000 nM.
Turning to `CN1CCN(c2ccncc2NC(=O)c2c(N)nn3cc(F)cnc23)CC1` [I-N-3, 2-amino-6-fluoro-N-(4-(4-methylpiperazin-1-yl)pyridin-3-yl)pyrazolo[1,5-a]pyrimidine-3-carboxamide], the Ki under setting [1] fell in the range of 10 to 1000 nM.
Regarding `Nc1nn2cc(F)cnc2c1C(=O)Nc1cnccc1N1CCN(C(=O)C2COC2)CC1` [I-N-249], the Ki under setting [1] lay within 10 to 1000 nM.
Still for that read-out and setting: with `Nc1nn2cc(F)cnc2c1C(=O)Nc1cnccc1N1CCN(C2CCOC2)CC1` (racemic) [I-N-19, (R,S)-2-amino-6-fluoro-N-(4-(4-(tetrahydrofuran-3-yl)piperazin-1-yl)pyridin-3-yl)pyrazolo[1,5-a]pyrimidine-3-carboxamide] the figure was 10 to 1000 nM; with `CC1(N2CCN(C(=O)C3CCN(c4c(F)cncc4NC(=O)c4c(N)nn5cc(F)cnc45)CC3)CC2)COC1` [I-G-92, 2-amino-6-fluoro-N-(5-fluoro-4-(4-(4-(3-methyloxetan-3-yl)piperazine-1-carbonyl)piperidin-1-yl)pyridin-3-yl)pyrazolo[1,5-a]pyrimidine-3-carboxamide], 10 to 1000 nM; with `N#CCc1cnc2c(C(=O)Nc3cnccc3O[C@@H]3CCNC3)c(N)nn2c1` [I-O-87, (R)-2-amino-6-(cyanomethyl)-N-(4-(pyrrolidin-3-yloxy)pyridin-3-yl)pyrazolo[1,5-a]pyrimidine-3-carboxamide], 10 to 1000 nM.
On the same count and under the same terms, the result for `CC(=O)N1CCCC12CCN(c1ccncc1NC(=O)c1c(N)nn3cc(F)cnc13)CC2` [I-N-262, N-(4-(1-acetyl-1,8-diazaspiro[4.5]decan-8-yl)pyridin-3-yl)-2-amino-6-fluoropyrazolo[1,5-a]pyrimidine-3-carboxamide] reads 10 to 1000 nM; that for `CN1CCC(OC2CCN(c3ccncc3NC(=O)c3c(N)nn4cc(F)cnc34)CC2)CC1` [I-N-154, 2-amino-6-fluoro-N-(4-(4-((1-methylpiperidin-4-yl)oxy)piperidin-1-yl)pyridin-3-yl)pyrazolo[1,5-a]pyrimidine-3-carboxamide], 10 to 1000 nM.
In the case of `N#CCc1cnc2c(C(=O)Nc3cnccc3O[C@H]3CCOC3)c(N)nn2c1` [I-O-42, (S)-2-amino-6-(cyanomethyl)-N-(4-((tetrahydrofuran-3-yl)oxy)pyridin-3-yl)pyrazolo[1,5-a]pyrimidine-3-carboxamide], under setting [1], the Ki was below 10 nM.
For the compound `CN1CCC(Oc2ccncc2NC(=O)c2c(N)nn3cc(F)cnc23)CC1` [I-O-12, 2-amino-6-fluoro-N-(4-((1-methylpiperidin-4-yl)oxy)pyridin-3-yl)pyrazolo[1,5-a]pyrimidine-3-carboxamide], the Ki under setting [1] lay in the range of 10 to 1000 nM.
Take `CC1(C)CN(c2ccncc2NC(=O)c2c(N)nn3cc(F)cnc23)CCS1(=O)=O` [I-N-252, 2-amino-N-(4-(2,2-dimethyl-1,1-dioxidothiomorpholino)pyridin-3-yl)-6-fluoropyrazolo[1,5-a]pyrimidine-3-carboxamide]: the Ki under setting [1] lay in the range of 10 to 1000 nM.
Consider `COC1(C)CN(C(=O)C2CCN(c3ccncc3NC(=O)c3c(N)nn4cc(F)cnc34)CC2)C1` [I-G-79, 2-amino-6-fluoro-N-(4-(4-(3-methoxy-3-methylazetidine-1-carbonyl)piperidin-1-yl)pyridin-3-yl)pyrazolo[1,5-a]pyrimidine-3-carboxamide], for which the Ki under setting [1] was 10 to 1000 nM.
Consider `CN1CCCN(c2ccncc2NC(=O)c2c(N)nn3cc(Cl)cnc23)CC1` [I-N-43, 2-amino-6-chloro-N-(4-(4-methyl-1,4-diazepan-1-yl)pyridin-3-yl)pyrazolo[1,5-a]pyrimidine-3-carboxamide], for which, under setting [1], the Ki lay in the range of 10 to 1000 nM.
With `N#CCc1cnc2c(C(=O)Nc3cnccc3OC3CCCNC3)c(N)nn2c1` (racemic) [I-O-2, (R,S)-2-amino-6-(cyanomethyl)-N-(4-(piperidin-3-yloxy)pyridin-3-yl)pyrazolo[1,5-a]pyrimidine-3-carboxamide], the Ki under setting [1] is below 10 nM.
For the compound `CC1CN(c2ccncc2NC(=O)c2c(N)nn3cc(Cl)cnc23)CCN1C` (stereo not drawn) [I-N-54, 2-amino-6-chloro-N-(4-(3,4-dimethylpiperazin-1-yl)pyridin-3-yl)pyrazolo[1,5-a]pyrimidine-3-carboxamide], the Ki under setting [1] lay within 10 to 1000 nM.
Still for that read-out and setting: with `COCC1CN(c2ccncc2NC(=O)c2c(N)nn3cc(Cl)cnc23)CCN1C` (stereo not drawn) [I-N-47, 2-amino-6-chloro-N-(4-(3-(methoxymethyl)-4-methylpiperazin-1-yl)pyridin-3-yl)pyrazolo[1,5-a]pyrimidine-3-carboxamide] the figure was 10 to 1000 nM.
As for `COc1cc(Cl)ncc1NC(=O)c1c(N)nn2cc(CC#N)cnc12` [I-O-27, 2-amino-N-(6-chloro-4-methoxypyridin-3-yl)-6-(cyanomethyl)pyrazolo[1,5-a]pyrimidine-3-carboxamide], the Ki under setting [1] is below 10 nM.
The same measure, in the same setting: with `N#CCc1cnc2c(C(=O)Nc3cnccc3OC3CCNCC3)c(N)nn2c1` [I-O-84, 2-amino-6-(cyanomethyl)-N-(4-(piperidin-4-yloxy)pyridin-3-yl)pyrazolo[1,5-a]pyrimidine-3-carboxamide] the figure was below 10 nM.
Same read-out and setting: with `Nc1nn2cc(Cl)cnc2c1C(=O)Nc1cnccc1OCC(F)(F)F` [I-O-59, 2-amino-6-chloro-N-(4-(2,2,2-trifluoroethoxy)pyridin-3-yl)pyrazolo[1,5-a]pyrimidine-3-carboxamide] the figure was 10 to 1000 nM.
As to `Nc1nn2cc(F)cnc2c1C(=O)Nc1cnccc1-c1cccnc1Cl` [I-C-37, 2-amino-N-(2-chloro-[3,4′-bipyridin]-3′-yl)-6-fluoropyrazolo[1,5-a]pyrimidine-3-carboxamide], the Ki lay within 1000 to 5000 nM.
Take `CNc1cc(N2CCN(C)CC2)c(NC(=O)c2c(N)nn3cc(F)cnc23)cn1` [I-N-129, 2-amino-6-fluoro-N-(6-(methylamino)-4-(4-methylpiperazin-1-yl)pyridin-3-yl)pyrazolo[1,5-a]pyrimidine-3-carboxamide]: under setting [1], the Ki fell in the range of 10 to 1000 nM.
Still for that read-out and setting: the result for `Nc1nn2cc(F)cnc2c1C(=O)Nc1cnccc1C1CCN(C(=O)C2CC2)CC1` [I-C-70, 2-amino-N-(4-(1-(cyclopropanecarbonyl)piperidin-4-yl)pyridin-3-yl)-6-fluoropyrazolo[1,5-a]pyrimidine-3-carboxamide] reads 10 to 1000 nM; that for `Nc1nn2cc(F)cnc2c1C(=O)Nc1cncc(F)c1N1CCC(C(=O)N2CC3CNCC3C2)CC1` (stereo not drawn) [I-G-51, 2-amino-6-fluoro-N-(5-fluoro-4-(4-(octahydropyrrolo[3,4-c]pyrrole-2-carbonyl)piperidin-1-yl)pyridin-3-yl)pyrazolo[1,5-a]pyrimidine-3-carboxamide], 10 to 1000 nM.
In the case of `CN1CCN(C2CCN(c3c(F)cncc3NC(=O)c3c(N)nn4cc(F)cnc34)CC2)C(=O)C1` [I-N-151, 2-amino-6-fluoro-N-(5-fluoro-4-(4-(4-methyl-2-oxopiperazin-1-yl)piperidin-1-yl)pyridin-3-yl)pyrazolo[1,5-a]pyrimidine-3-carboxamide], the Ki was 1000 to 5000 nM.
Take `Nc1nn2cc(F)cnc2c1C(=O)Nc1cncc(F)c1N1CCC(C(=O)N2CCN(C3CCC3)CC2)CC1` [I-G-35, 2-amino-N-(4-(4-(4-cyclobutylpiperazine-1-carbonyl)piperidin-1-yl)-5-fluoropyridin-3-yl)-6-fluoropyrazolo[1,5-a]pyrimidine-3-carboxamide]: the Ki under setting [1] is 10 to 1000 nM.
For `CN1CCC[C@@H]1COc1ccncc1NC(=O)c1c(N)nn2cc(Cl)cnc12` [I-O-49, (R)-2-amino-6-chloro-N-(4-((1-methylpyrrolidin-2-yl)methoxy)pyridin-3-yl)pyrazolo[1,5-a]pyrimidine-3-carboxamide], the Ki under setting [1] lay in the range of 10 to 1000 nM.
Same read-out and setting: with `CN(C)S(=O)(=O)C1CCN(c2c(F)cncc2NC(=O)c2c(N)nn3cc(F)cnc23)CC1` [I-N-146, 2-amino-N-(4-(4-(N,N-dimethylsulfamoyl)piperidin-1-yl)-5-fluoropyridin-3-yl)-6-fluoropyrazolo[1,5-a]pyrimidine-3-carboxamide] the figure was 10 to 1000 nM; with `CS(=O)(=O)C1CCN(c2c(F)cncc2NC(=O)c2c(N)nn3cc(F)cnc23)CC1` [I-N-165, 2-amino-6-fluoro-N-(5-fluoro-4-(4-(methylsulfonyl)piperidin-1-yl)pyridin-3-yl)pyrazolo[1,5-a]pyrimidine-3-carboxamide], 10 to 1000 nM; with `CN1CCc2c(cncc2NC(=O)c2c(N)nn3cc(F)cnc23)C1` [I-C-8, 2-amino-6-fluoro-N-(7-methyl-5,6,7,8-tetrahydro-2,7-naphthyridin-4-yl)pyrazolo[1,5-a]pyrimidine-3-carboxamide], 10 to 1000 nM.
For the compound `Nc1nn2cc(F)cnc2c1C(=O)Nc1cncc(F)c1N1CCN2C(=O)CCC[C@H]2C1` [I-N-279, (S)-2-amino-6-fluoro-N-(5-fluoro-4-(6-oxohexahydro-1H-pyrido[1,2-a]pyrazin-2(6H)-yl)pyridin-3-yl)pyrazolo[1,5-a]pyrimidine-3-carboxamide], the Ki under setting [1] was in the range of 10 to 1000 nM.
